Measurements reported in patent US8134004B2, “Substituted N-bicyclicalkyl bicycliccarboxyamide compounds” (Pfizer Inc., priority 2006, dated 2012).
Structures can show the parent of a compound that is named as a salt.

target: human VR1 (Homo sapiens, UniProt Q8NER1); test: Human VR1 antagonist assay (Ca2+ imaging); type: cell-based; conditions: Ca2+ imaging assay using human VR1 highly expressing cells, fura-2/AM; agonist stimulation (capsaicin 300 nM or acid pH 5.8), not given
Excerpt: Human VR1 Antagonist Assay
VR1 antagonistic activity can be determined by the Ca^2+ imaging assay using human VR1 highly expressing cells. The cells that highly express human VR1 receptors are obtainable from several different conventional methods. The one standard method is cloning from human Dorsal Root Ganglion (DRG) or kidney according to the methods such as described in the journal article; Nature, 389, pp 816-824, 1997. Alternatively VR1 receptors highly expressing human keratinocytes are also known and published in the journal article (Biochemical and Biophysical Research Communications, 291, pp 124-129, 2002). […] Furthermore, the method to up regulate human VR1 gene, which is usually a silent gene or don't produce detectable level of VR1 receptors, is also available to obtain propriety cells. Such genetic modification method was described in detail; Nat. Biotechnol., 19, pp 440-445, 2001.
The cells that express human VR1 receptors were maintained in culture flask at 37° C. in an environment containing 5% CO2 until use in the assay. The intracellular Ca^2+ imaging assay to determine VR1 antagonistic activities were done by following procedures.
The culture medium was removed from the flask and fura-2/AM fluorescent calcium indicator was added to the flask at a concentration of 5 μM in the medium. The flask was placed in CO2 incubator and incubated for 1 hour. Then the cells expressing the human VR1 receptors were detached from the flask follow by washing with phosphate buffer saline, PBS(−) and re-suspended in assay buffer. The 80 μl of aliquot of cell suspension (3.75×10^5 cells/ml) was added to the assay plate and the cells were spun down by centrifuge (950 rpm, 20° C., 3 minutes).
The compounds of the examples were tested in the Human VR1 antagonist assay described above.
The capsaicin-induced changes in the intracellular calcium concentration were monitored using FDSS 6000 (Hamamatsu Photonics, Japan), a fluorometric imaging system. The cell suspension in Krebs-Ringer HEPES (KRH) buffer (115 mM NaCl, 5.4 mM KCl, 1 mM MgSO4, 1.8 mM CaCl2, 11 mM D-Glucose, 25 mM HEPES, 0.96 mM Na2HPO4, pH 7.3) were pre-incubated with varying concentrations of the test compounds or KRH buffer (buffer control) for 15 minutes at room temperature under the dark condition. Then capsaicin solution, which gives 300 nM in assay mixture, was automatically added to the assay plate by the FDSS 6000.
The Acid-induced changes in the intracellular calcium concentration were monitored using FDSS 6000 (Hamamatsu Photonics, Japan), a fluorometric imaging system. The cell suspension in resting buffer (HBSS supplemented with 10 mM HEPES, pH 7.4) were pre-incubated with varying concentrations of the test compounds or resting buffer (buffer control) for 15 minutes at room temperature under the dark condition. The cells were automatically added the stimulating solution (HBSS supplemented with MES, final assay buffer pH5.8) by the FDSS 6000.
The monitoring of the changes in the fluorescence signals (λex=340 nm/380 nm, λem=510-520 nm) was initiated at 1 minute prior to the addition of capsaicin solution or acidic buffer and continued for 5 minute.

human VR1, sequence (Q8NER1 whole entry): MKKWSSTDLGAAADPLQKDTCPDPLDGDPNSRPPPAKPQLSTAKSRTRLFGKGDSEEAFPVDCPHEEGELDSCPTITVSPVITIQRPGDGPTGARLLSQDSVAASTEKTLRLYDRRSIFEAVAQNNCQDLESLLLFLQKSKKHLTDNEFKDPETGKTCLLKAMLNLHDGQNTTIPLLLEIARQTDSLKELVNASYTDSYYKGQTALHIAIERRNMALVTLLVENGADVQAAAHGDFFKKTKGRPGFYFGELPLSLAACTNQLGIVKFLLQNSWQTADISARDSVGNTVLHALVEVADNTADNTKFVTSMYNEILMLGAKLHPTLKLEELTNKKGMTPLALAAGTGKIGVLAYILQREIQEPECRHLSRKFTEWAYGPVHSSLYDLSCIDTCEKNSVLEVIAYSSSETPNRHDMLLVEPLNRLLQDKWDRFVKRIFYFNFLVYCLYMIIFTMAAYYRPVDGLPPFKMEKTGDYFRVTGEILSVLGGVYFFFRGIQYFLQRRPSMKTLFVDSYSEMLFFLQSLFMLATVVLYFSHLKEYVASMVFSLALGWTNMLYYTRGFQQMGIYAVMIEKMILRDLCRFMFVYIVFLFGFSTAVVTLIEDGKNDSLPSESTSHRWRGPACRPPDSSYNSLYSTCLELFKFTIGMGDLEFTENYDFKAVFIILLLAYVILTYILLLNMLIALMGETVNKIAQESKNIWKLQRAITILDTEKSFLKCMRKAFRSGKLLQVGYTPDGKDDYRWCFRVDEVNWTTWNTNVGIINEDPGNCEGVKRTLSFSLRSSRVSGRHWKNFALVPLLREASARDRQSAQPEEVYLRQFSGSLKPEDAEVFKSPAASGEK

Q: With `C[C@@H](NC(=O)c1ccc2nc(C(C)(C)C(F)(F)F)ccc2c1)c1ccnc2ccccc12` (single isomer, unassigned) [Example C13] as the molecule, how does the IC50 read?
A: Its IC50 is 49.8 nM.

Q: Which IC50 does the source give for `CC(NC(=O)c1ccc2cc(C(C)(C)C)ccc2c1)c1ccc2[nH]ncc2c1` (stereo not drawn) [Example A5, 6-tert-butyl-N-[1-1H-indazole-5-ylethyl]-2-naphthamide] here?
A: Its IC50 is 16.4 nM.

Q: How did the IC50 turn out when `CC[C@@H](NC(=O)c1ccc2cc(C(C)(C)C)ccc2n1)c1ccc2[nH]nnc2c1` [Example B2, N-[(1R)-1-(1H-1,2,3-benzotriazol-6-yl)propyl]-6-tert-butylquinoline-2-carboxamide] was run?
A: The IC50 was 158 nM.

Q: For `CC(C)(c1ccc2cc(C(=O)NC(CO)c3ccnc4ccccc34)ccc2n1)C(F)(F)F` (stereo not drawn) [Example C20, N-(2-hydroxy-1-quinolin-4-ylethyl)-2-(2,2,2-trifluoro-1,1-dimethylethyl)quinoline-6-carboxamide], which IC50 is on record?
A: Its IC50 is 570 nM.

Q: For `CC(C)(C)c1ccc2cc(C(=O)NCc3ccc4c(c3)CN=N4)ccc2c1` [Example A3, 6-tert-butyl-N-(3H-indazol-5-ylmethyl)-2-naphthamide], which IC50 is on record?
A: The IC50 was 61.6 nM.

Q: How did the IC50 turn out when `CC(NC(=O)c1ccc2nc(C(C)(C)C)ccc2c1)c1ccc2c(c1)CC(=O)N2` (stereo not drawn) [Example C3, 2-tert-butyl-N-[1-(2-oxo-2,3-dihydro-1H-indol-5-yl)ethyl] quinoline-6-carboxamide] was run?
A: The IC50 was 242 nM.

Q: For `CC(C)(C)c1ccc2nc(C(=O)NCc3ccc4[nH]nnc4c3)ccc2c1` [Example B6, N-(1H-1,2,3-benzotriazol-5-ylmethyl)-6-tert-butylquinoline-2-carboxamide], which IC50 is on record?
A: The IC50 was 18.7 nM.

Q: For `C[C@@H](NC(=O)c1ccc2cc(C(C)(C)C)ccc2n1)c1ccnc2ccccc12` (single isomer, unassigned) [Example B7, 6-tert-butyl-N-(1-quinolin-4-ylethyl)quinoline-2-carboxamide], which IC50 is on record?
A: Its IC50 is 132 nM.

Q: `C[C@@H](NC(=O)c1ccc2nc(C(C)(O)C(F)(F)F)ccc2c1)c1ccnc2ccccc12` (stereo partly drawn) [Example C15, N-[(1R)-1-quinolin-4-ylethyl]-2-(2,2,2-trifluoro-1-hydroxy-1-methylethyl)quinoline-6-carboxamide] was tested. Which IC50 did it give?
A: Its IC50 is 316 nM.

Q: `CCC(NC(=O)c1ccc2nc(C(C)(C)C(F)(F)F)ccc2c1)c1ccnc2ccccc12` (stereo not drawn) [Example C18, N-(1-quinolin-4-ylpropyl)-2-(2,2,2-trifluoro-1,1-dimethylethyl) quinoline-6-carboxamide] was tested. Which IC50 did it give?
A: Its IC50 is 136 nM.

Q: How did the IC50 turn out when `C[C@@H](NC(=O)c1ccc2cc(C(C)(C)C)ccc2c1)c1ccc2nn[nH]c2c1` [Example A1, N-[(1R)-1-(1H-1,2,3-benzotriazol-6-yl)ethyl]-6-tert-butyl-2-naphthamide] was run?
A: Its IC50 is 17.9 nM.

Q: How did the IC50 turn out when `CC(NC(=O)c1ccc2cc(C(C)(C)C)ccc2n1)c1ccnc2ccccc12` (stereo not drawn) [Example B5, 6-tert-butyl-N-(1-quinolin-4-ylethyl)quinoline-2-carboxamide hydrochloride] was run?
A: The IC50 was 204 nM.

Q: Which IC50 does the source give for `COC(C)(c1ccc2cc(C(=O)NCc3ccnc4ccccc34)ccc2c1)C(F)(F)F` (stereo not drawn) [Example A6, N-(quinolin-4-ylmethyl)-6-(1,1,1-trifluoro-2-methoxypropan-2-yl)-2-naphthamide] here?
A: Its IC50 is 52 nM.

Q: `CC(NC(=O)c1ccc2nc(C(C)(C)C(F)(F)F)ccc2c1)c1ccc2[nH]c(=O)[nH]c2c1` (stereo not drawn) [Example C9, N-[1-(2-oxo-2,3-dihydro-1H-benzimidazol-5-yl)ethyl]-2-(2,2,2-trifluoro-1,1-dimethylethyl)quinoline-6-carboxamide] was tested. Which IC50 did it give?
A: The IC50 was 151 nM.

Q: Which IC50 does the source give for `CC(NC(=O)c1ccc2nc(C(C)(C)C(F)(F)F)ccc2c1)c1ccc2c(c1)CC(=O)N2` (stereo not drawn) [Example C10, N-[1-(2-oxo-2,3-dihydro-1H-indol-5-yl)ethyl]-2-(2,2,2-trifluoro-1,1-dimethylethyl)quinoline-6-carboxamide] here?
A: The IC50 was 274 nM.

Q: Which IC50 does the source give for `CC(C)(C)c1ccc2nc(C(=O)NCc3ccnc4ccccc34)ccc2c1` [Example B3, 6-tert-butyl-N-(quinolin-4-ylmethyl)quinoline-2-carboxamide] here?
A: Its IC50 is 117 nM.

Q: `CC(C)(C)c1ccc2cc(C(=O)NCc3ccnc4ccccc34)ccc2c1` [Example A2] was tested. Which IC50 did it give?
A: Its IC50 is 17 nM.

Q: With `CC(C)(c1ccc2cc(C(=O)NCc3ccnc4ccc(F)cc34)ccc2n1)C(F)(F)F` [Example C11, N-[(6-fluoroquinolin-4-yl)methyl]-2-(2,2,2-trifluoro-1,1-dimethylethyl)quinoline-6-carboxamide] as the molecule, how does the IC50 read?
A: The IC50 was 173 nM.

Q: How did the IC50 turn out when `C[C@@H](NC(=O)c1ccc2nc(C(C)(C)C)ccc2c1)c1ccc2[nH]c(=O)[nH]c2c1` [Example C2, 2-tert-butyl-N-[(1R)-1-(2-oxo-2,3-dihydro-1H-benzimidazol-6-yl)ethyl]quinoline-6-carboxamide] was run?
A: The IC50 was 142 nM.

Q: Which IC50 does the source give for `CC(NC(=O)c1ccc2cc(C(C)(C)C)ccc2c1)c1ccc2c(c1)CC(=O)N2` (stereo not drawn) [Example A4, 6-tert-butyl-N-[1-(2-oxo-2,3-dihydro-1H-indol-5-yl)ethyl]-2-naphthamide] here?
A: Its IC50 is 85.7 nM.

Q: Which IC50 does the source give for `C[C@@H](NC(=O)c1ccc2cc(C(C)(C)C)ccc2n1)c1ccc2[nH]nnc2c1` [Example B1, N-[(1R)-1-(1H-1,2,3-benzotriazol-6-yl)ethyl]-6-tert-butylquinoline-2-carboxamide] here?
A: The IC50 was 9.45 nM.

Q: For `Cc1cc(CNC(=O)c2ccc3nc(C(C)(C)C(F)(F)F)ccc3c2)c2ccccc2n1` [Example C8, N-[(2-methylquinolin-4-yl)methyl]-2-(2,2,2-trifluoro-1,1-dimethylethyl)quinoline-6-carboxamide], which IC50 is on record?
A: Its IC50 is 351 nM.

Q: How did the IC50 turn out when `C[C@@H](NC(=O)c1ccc2nc(C(C)(C)C)ccc2c1)c1ccc2[nH]nnc2c1` [Example C1, N-[(1R)-1-(1H-1,2,3-benzotriazol-6-yl)ethyl]-2-tert-butylquinoline-6-carboxamide] was run?
A: The IC50 was 39.2 nM.

Q: Which IC50 does the source give for `CC(NC(=O)c1ccc2nc(C(C)(C)C(F)(F)F)ccc2c1)c1ccc2[nH]ncc2c1` (stereo not drawn) [Example C4, N-[1-1H-indazole-5-ylethyl]-2-(2,2,2-trifluoro-1,1-dimethylethyl)quinoline-6-carboxamide] here?
A: The IC50 was 23 nM.

Q: How did the IC50 turn out when `C[C@@H](NC(=O)c1ccc2cc(C(C)(O)C(F)(F)F)ccc2c1)c1ccnc2ccccc12` (stereo partly drawn) [Example A9, N-[(1R)-1-quinolin-4-ylethyl]-6-(2,2,2-trifluoro-1-hydroxy-1-methylethyl)-2-naphthamide] was run?
A: The IC50 was 382 nM.

Q: `Cc1ccc2nccc(CNC(=O)c3ccc4nc(C(C)(C)C(F)(F)F)ccc4c3)c2c1` [Example C14, N-[(6-methylquinolin-4-yl)methyl]-2-(2,2,2-trifluoro-1,1-dimethylethyl)quinoline-6-carboxamide] was tested. Which IC50 did it give?
A: The IC50 was 422 nM.

Q: How did the IC50 turn out when `CC(C)(c1ccc2cc(C(=O)NCc3ccnc4c(F)cc(F)cc34)ccc2n1)C(F)(F)F` [Example C12, N-[(6,8-difluoroquinolin-4-yl)methyl]-2-(2,2,2-trifluoro-1,1-dimethylethyl)quinoline-6-carboxamide] was run?
A: The IC50 was 266 nM.

Q: For `Oc1cc2c(cc1O)CN(C(=S)NCCc1ccc(Cl)cc1)CCC2` [capsazepine, reference compound], which IC50 is on record?
A: The IC50 was 237 to 455 nM.

Q: With `CC(NC(=O)c1cnc2cc(C(C)(C)C)ccc2c1)c1ccnc2ccccc12` (stereo not drawn) [Example D1, 7-tert-butyl-N-(1-quinolin-4-ylethyl)quinoline-3-carboxamide] as the molecule, how does the IC50 read?
A: The IC50 was 246 nM.

Q: Which IC50 does the source give for `Cc1cccc2c(CNC(=O)c3ccc4nc(C(C)(C)C(F)(F)F)ccc4c3)ccnc12` [Example C16, N-[(8-methylquinolin-4-yl)methyl]-2-(2,2,2-trifluoro-1,1-dimethylethyl)quinoline-6-carboxamide] here?
A: The IC50 was 437 nM.

Q: `CC1(c2ccc3cc(C(=O)NCc4ccnc5ccccc45)ccc3c2)CC1` [Example A7, 6-(1-methylcyclopropyl)-N-(quinolin-4-ylmethyl)-2-naphthamide] was tested. Which IC50 did it give?
A: The IC50 was 140 nM.

Q: With `CC(C)(c1ccc2cc(C(=O)NCc3ccnc4ccccc34)ccc2n1)C(F)(F)F` [Example C5, N-(quinolin-4-ylmethyl)-2-(2,2,2-trifluoro-1,1-dimethylethyl) quinoline-6-carboxamide] as the molecule, how does the IC50 read?
A: Its IC50 is 72 nM.

Q: Which IC50 does the source give for `CC(C)(c1ccc2cc(C(=O)NCc3cccc4cnccc34)ccc2n1)C(F)(F)F` [Example C7, N-(isoquinolin-5-ylmethyl)-2-(2,2,2-trifluoro-1,1-dimethylethyl) quinoline-6-carboxamide] here?
A: The IC50 was 27 nM.
